Data on two molecules can be found in US9072778B2, “Treatment regimen for N-MYC, c-MYC, and L-MYC amplified and overexpressed tumors” (UNIVERSITY OF HAWAII, priority 2005, dated 2015).

Holding throughout (format): cell-based, human
In experiment [1] the test system is LAN-1 cells. Put plainly: Polyamine pool analysis in inhibitor-treated LAN-1 cells. Conditions: DFMO = 5 mM, SAM486A = 10 μM, Spd = 10 μM. Here is the method: (§1) Combined inhibition of both enzymes decreased polyamine pools to various degrees, and exogenous supplementation of Spd (10 μM) to cell cultures led to a substantial increase in Spd. […] In untreated control cells, the levels of Put and Spd decreased during exponential cell growth and proliferation (day 0 to day 3), which is also consistent with a decrease in ODC and AdoMetDC enzyme activities (FIGS. 3d and 3e). Spm levels decreased in untreated LAN-1 cells and remained the same in NMB-7 cells (Table 1).
(§2) Human NB cell lines were provided by Dr. Robert Seeger (LAN-1; University of California, Los Angeles, Calif.), Dr. Nai-Kong Cheung (NMB-7; Memorial Sloan-Kettering Cancer Center, NY), and the American Type Culture Collection (SK-N-SH; ATCC, Manassas, Va.). Cells were maintained in RPMI 1640 (Biosource, Rockeville, Md.) containing 10% heat-inactivated fetal bovine serum (FBS) (Invitrogen, Carlsbad, Calif.), penicillin (100 IU/ml) and streptomycin (100 μg/ml). If cells were treated with exogenous Spd, 1 mM of aminoguanidine was included as an inhibitor of serum polyamine oxidation. […] For growth and proliferation inhibition, polyamine pool, and cell cycle studies, 10 μM Spd was added together with inhibitors, and cells were assayed on days 2 and/or 3.
(§3) Intracellular polyamines were extracted from cell pellets by a method known in the art. In brief, cells were washed and centrifuged. After sonication and centrifugation, 250 μl of supernatant, 100 μl of saturated sodium carbonate, and 300 μl of 25 mg/ml dansyl chloride (5-dimethylamino-naphthalene-1-sulfonyl chloride) (Fluka, Switzerland) were mixed and analyzed via reverse phase HPLC using a C18 reverse-phase analytical column (Waters, Milford, Mass.). The effluent from the column was monitored at 510 nm (excitation at 330 nm). Polyamine levels were determined using appropriate standards. The samples were normalized in 0.2 N sodium hydroxide and the amount of total protein per sample was measured using the Bradford assay (70). Polyamine levels are expressed as nmol per mg of total cellular protein.

Experiment [2] relates to NMB-7 cells. The experiment can be described thus: Polyamine pool analysis in inhibitor-treated NMB-7 cells. As to conditions: DFMO = 5 mM, SAM486A = 10 μM, Spd = 10 μM. Here is the method:
as §1, §2, §3

Experiment [3] has as its system p27^Kip1. The experiment can be described thus: Western blot of p27Kip1 in inhibitor-treated NB cells. Conditions: LAN-1 and NMB-7; 5 mM DFMO, 10 μM SAM486A; days 2 and 3, relative to untreated control. The method, then:
To further investigate the mechanism that regulates G1 arrest in LAN-1 and NMB-7 cells, and to define the changes in associated protein responses, the cell cycle-related proteins p21^Waf1/Cip1, p27^Kip1, p53, Rb, and MYCN in NB cell lysates were studied. Cells were analyzed on days 1, 2, and 3. Equal amounts of total protein were loaded in all experiments. Proteins were scanned and the ratio of hypophosphorylated Rb (pRb) (lower band):hyperphosphorylated Rb (ppRb) (upper band) was calculated (b). MYCN bands were quantified and normalized relative to β-actin. Values are presented as percentage (%) of controls of day 1, 2 or 3. (c). The data are representative of at least three independent experiments. […] To test for the presence of the cdk inhibitor protein p21^Waf1/Cip1, identical experiments were conducted, but the protein could not be detected (not shown). Low levels of p21^Waf1/Cip1 in NB cells have been previously described (McKenzie et al., (2003). Cancer Res, 63, 3840-4, which is incorporated herein by reference in its entirety). Similarly, the tumor suppressor protein p53 was not detected (not shown), which is in agreement with previous findings that cell lines LAN-1 and NMB-7 are p53 deficient. In contrast, p53 was readily expressed in identical Western blot control experiments and detected by immunofluorescence using the p53 wild type cell line SK-N-SH (not shown).
A general note: A western blot detects proteins with antibodies after separation by electrophoresis.

Experiment [4] has as its system retinoblastoma protein Rb. The experiment can be described thus: Western blot of Rb phosphorylation in inhibitor-treated NB cells. As to conditions: LAN-1 and NMB-7; days 2 and 3. Here is the method:
To further investigate the mechanism that regulates G1 arrest in LAN-1 and NMB-7 cells, and to define the changes in associated protein responses, the cell cycle-related proteins p21^Waf1/Cip1, p27^Kip1, p53, Rb, and MYCN in NB cell lysates were studied. Cells were analyzed on days 1, 2, and 3. Equal amounts of total protein were loaded in all experiments. Proteins were scanned and the ratio of hypophosphorylated Rb (pRb) (lower band):hyperphosphorylated Rb (ppRb) (upper band) was calculated (b). MYCN bands were quantified and normalized relative to β-actin. Values are presented as percentage (%) of controls of day 1, 2 or 3. (c). The data are representative of at least three independent experiments.
The retinoblastoma protein Rb can be regulated through the action of p27^Kip1. Rb phosphorylation reduces the levels of functional Rb/E2F repressor complexes and activates E2F-responsive promoters important for moving the cell through the G1/S phase of the cell cycle. […] Rb hypophosphorylation was further confirmed with total Rb showing a visible mobility shift from a hyperphosphorylated form (upper band) to a hypophosphorylated form (lower band). […] Hypophosphorylation of Rb is a known consequence of p27^Kip1 induction, and this is in strong agreement with our findings.

As to `NCCC[C@](N)(C(=O)O)C(F)F` [DFMO, α-difluoromethylornithine], the “Polyamine pools PUT” value in experiment [1] (LAN-1, Day 2) worked out at 0.3 NMOL/MG TOTAL PROTEIN; in experiment [1] (LAN-1, Day 3) it was 0.0 NMOL/MG TOTAL PROTEIN; in experiment [2] (NMB-7, Day 2), 0.1 NMOL/MG TOTAL PROTEIN; in experiment [2] (NMB-7, Day 3), 0.0 NMOL/MG TOTAL PROTEIN. Moreover, the “Polyamine pools SPD” value was determined as 2.2 NMOL/MG TOTAL PROTEIN in experiment [1] (LAN-1, Day 2); 1.9 NMOL/MG TOTAL PROTEIN in experiment [1] (LAN-1, Day 3); 1.9 NMOL/MG TOTAL PROTEIN in experiment [2] (NMB-7, Day 2); 1.4 NMOL/MG TOTAL PROTEIN in experiment [2] (NMB-7, Day 3). The “Polyamine pools SPM” value in experiment [1] (LAN-1, Day 2) is reported as 8.7 NMOL/MG TOTAL PROTEIN; in experiment [1] (LAN-1, Day 3), 8.1 NMOL/MG TOTAL PROTEIN; in experiment [2] (NMB-7, Day 2), 9.3 NMOL/MG TOTAL PROTEIN; in experiment [2] (NMB-7, Day 3) it was 8.6 NMOL/MG TOTAL PROTEIN. Besides, in experiment [3], the “p27^Kip1 protein levels” value was “increased endogenous levels of cdk inhibitor protein p27^Kip1”. In experiment [4], the “Rb phosphorylation (Ser795, Ser807/811)” value is recorded as “strong hypophosphorylation of Rb”.
In the case of `N=C(N)c1cccc2c1CC/C2=N\N=C(N)N` [SAM486A, 4-amidinoindan-1-one 2′-amidinohydrazone], the “Polyamine pools PUT” value in experiment [1] (LAN-1, Day 2) was 48.5 NMOL/MG TOTAL PROTEIN; in experiment [1] (LAN-1, Day 3) it was 43.7 NMOL/MG TOTAL PROTEIN; in experiment [2] (NMB-7, Day 2) it was 69.6 NMOL/MG TOTAL PROTEIN; in experiment [2] (NMB-7, Day 3), 259.5 NMOL/MG TOTAL PROTEIN. In addition, the “Polyamine pools SPD” value was 5.5 NMOL/MG TOTAL PROTEIN in experiment [1] (LAN-1, Day 2); 5.0 NMOL/MG TOTAL PROTEIN in experiment [1] (LAN-1, Day 3); 5.6 NMOL/MG TOTAL PROTEIN in experiment [2] (NMB-7, Day 2); 5.5 NMOL/MG TOTAL PROTEIN in experiment [2] (NMB-7, Day 3). Further, the “Polyamine pools SPM” value in experiment [1] (LAN-1, Day 2) stood at 4.2 NMOL/MG TOTAL PROTEIN; in experiment [1] (LAN-1, Day 3) it was 3.5 NMOL/MG TOTAL PROTEIN; in experiment [2] (NMB-7, Day 2), 3.9 NMOL/MG TOTAL PROTEIN; in experiment [2] (NMB-7, Day 3), 3.6 NMOL/MG TOTAL PROTEIN. The “p27^Kip1 protein levels” value in experiment [3] is given as “did not alter p27^Kip1 levels”. Further, the “Rb phosphorylation (Ser795, Ser807/811)” value in experiment [4] was “much less pronounced”.
